What was measured:
[1] = test system: licking of the formalin injected paw (Phase 2, 20-30 min); assay: Formalin paw test, determination of ID50 of single agents (experiment 1); assay type: in vivo, male mice (Hsd Ola:ICR); conditions: single agent; for Effect on Phase 2 licking: i.v., increasing doses; for ID50 (μg/kg) for 2nd phase of licking (95% confidence limits): intravenously 15 min before formalin (20 μl; 3%), 20-30 min after formalin
Protocol: Six mice were observed simultaneously.
All test agents were administered via a tail vein. […] Each animal was used once only.
Animals (n=6 for each dose/drug) received increasing doses of morphine, ketorolac, indomethacin, the hydrochloride salt of Org 41793 (Org 43273) or vehicle administered intravenously 15 min before injection of formalin (20 μl; 3%) into the plantar surface of the left hindpaw. Data were plotted as the mean time spent licking the formalin injected paw±s.e.m for each of the two time periods (0-5 & 20-30 min) and an ID50 for the group calculated. To calculate the ID50 for the second phase of licking, the time spent licking following test drug treatment was calculated as a percentage of the time spent licking by vehicle-treated mice. An ID50 was then calculated using a non-linear regression fit, sigmoidal dose-response with constants of 0 and 100 for the bottom and top, respectively (GraphPad Prism software).

[2] = test system: licking of the formalin injected paw (Phase 2, 20-30 min); assay: Formalin paw test, co-administration in constant dose ratio with isobolographic analysis (experiment 2); conditions: for Theoretical ID50 (μg/kg) for 2nd phase of licking (95% confidence limits): component dose at theoretical additive point; for Theoretical ID50 (μg/kg) for 2nd phase of licking (95% confidence limits) / Experimental ID50 (μg/kg) for 2nd phase of licking (95% confidence limits): i.v.; for Experimental ID50 (μg/kg) for 2nd phase of licking (95% confidence limits): component dose, constant dose ratio; for Effect on amount of morphine or Org 41793 required to elicit antinociception: second phase of licking
Protocol: In mice, recording the time spent licking or biting the injected paw is the most common method of behavioural assessment.
Experiments were performed on male mice (Hsd Ola:ICR) from Harlan UK Ltd. (Bicester, UK). Subjects were grouped on receipt and acclimatised for a minimum of 5 days at a constant temperature (21°±1° C.) under a 12-hour light/12-hour dark cycle. Mice were tail-marked. At the end of the study all mice were euthanized with CO2 or cervical dislocation.
Following subcutaneous formalin injection into the plantar surface of the paw, animals were placed in a Perspex box on a glass plate. A piece of black cardboard was placed on top of the box. A video camera (Sony) placed beneath the glass plate was then used to record the mice for 45 min after formalin injection. Six mice were observed simultaneously. The video camera was linked to a PC and the video images captured as MPEG files using a software package (Studio MP10). The MPEG file was later transferred to CD for offline analysis. A behavioural scoring program (The Observer) was then used to measure the time the mice spent licking the injected paw. Two blocks of time were analysed: 0-5 min (Phase 1) and 20-30 min (Phase 2). These two time periods were chosen to reflect the two phases of licking that typically occur after formalin injection.
All test agents were administered via a tail vein. […] Animals were weighed immediately prior to testing and all test agents were administered in a dosing volume of 5 ml/kg. Each animal was used once only.
The ID50 values calculated in experiment 1 for the second phase licking as previously described were used for this experiment. […] The ID50 of the total dose of the mixture was then calculated from this dose-response curve.
Testing for a significant difference by t-test was not possible since confidence intervals (CIs) were not symmetric around the theoretical additive ID50.

[3] = combination Org 41793 with ketorolac
[4] = combination Org 41793 with ketorolac, listed as ketorolac
[5] = combination Org 41793 with indomethacin
[6] = combination Org 41793 with indomethacin, listed as indomethacin

SMILES	Effect on Phase 2 licking [1]	ID50 (μg/kg) for 2nd phase of licking (95% confidence limits) [1]	ID50 (μg/kg) for 2nd phase of licking (95% confidence limits) ([1]; listed as ketorolac) [µg/kg]	Theoretical ID50 (μg/kg) for 2nd phase of licking (95% confidence limits) [2, 3]	Theoretical ID50 (μg/kg) for 2nd phase of licking (95% confidence limits) [2, 4] [µg/kg]	Experimental ID50 (μg/kg) for 2nd phase of licking (95% confidence limits) [2, 3]	Experimental ID50 (μg/kg) for 2nd phase of licking (95% confidence limits) [2, 4] [µg/kg]	Effect on amount of morphine or Org 41793 required to elicit antinociception [2]	ID50 (μg/kg) for 2nd phase of licking (95% confidence limits) ([1]; listed as indomethacin) [µg/kg]	Theoretical ID50 (μg/kg) for 2nd phase of licking (95% confidence limits) [2, 5]	Theoretical ID50 (μg/kg) for 2nd phase of licking (95% confidence limits) [2, 6] [µg/kg]	Experimental ID50 (μg/kg) for 2nd phase of licking (95% confidence limits) [2, 5]	Experimental ID50 (μg/kg) for 2nd phase of licking (95% confidence limits) [2, 6] [µg/kg]	ID50 (μg/kg) for 2nd phase of licking (95% confidence limits) ([1]; listed as morphine) [µg/kg]
O=C(c1ccccc1)c1ccc2n1CCC2C(=O)O (racemic) [Ketorolac, (±)-5-benzoyl-2,3-dihydro-1H-pyrrolizine-1-carboxylic acid, 2-amino-2-(hydroxymethyl)-1,3-propanediol]	dose-dependent inhibition	70 (40-134) μg/kg	70	Ketorolac: 35 (20-67) μg/kg	35	Ketorolac: 5 (2-12) μg/kg	5	opioid sparing						
COc1ccc2c(c1)c(CC(=O)O)c(C)n2C(=O)c1ccc(Cl)cc1 [Indomethacin, indomethacin]	dose-dependent inhibition	340 (218-531) μg/kg						opioid sparing	340	Indomethacin: 170 (109- μg/kg	170	Indomethacin: 40 (26-58) μg/kg	40	
CN1CC[C@]23c4c5ccc(O)c4O[C@H]2[C@@H](O)C=C[C@H]3[C@H]1C5.O.O.O.O.O.O=S(=O)(O)O [Morphine, Morphine sulphate pentahydrate]	dose-dependent inhibition	870 (496-1522) μg/kg												870
C=CCN1C[C@H](C)N([C@@H](c2cccc(O)c2)c2cccc(C(=O)N(C)c3cccc(F)c3)c2)C[C@H]1C [Org 41793, 3-[(αR)-α-((2S,5R)-4-allyl-2,5-dimethyl-1-piperazinyl)-3-hydroxybenzyl]-N-(3-fluorophenyl)-N-methylbenzamide]	dose-dependent inhibition	92 (60-140) μg/kg												

Reference: patent US7375106B2, “Synergistic combination of an opioid analgesic and a NSAID” (N.V. Organon, priority 2002, dated 2008)
